The source of these data is patent US8044079B2, “Substituted oxindole derivatives, medicaments containing said derivatives and use thereof” (Abbott GmbH & Co. KG, priority 2005, dated 2011).

SMILES strings stand for the structures. pKi: −log10 of the molar value.

The experiment deals with T1, human vasopressin V1b receptor (Homo sapiens, UniProt P47901).
T1 construct: expressed in transfected cells; host or cells: CHO-K1 (cell line hV1b_3H2_CHO), membrane preparation
T1 sequence (P47901 1-424): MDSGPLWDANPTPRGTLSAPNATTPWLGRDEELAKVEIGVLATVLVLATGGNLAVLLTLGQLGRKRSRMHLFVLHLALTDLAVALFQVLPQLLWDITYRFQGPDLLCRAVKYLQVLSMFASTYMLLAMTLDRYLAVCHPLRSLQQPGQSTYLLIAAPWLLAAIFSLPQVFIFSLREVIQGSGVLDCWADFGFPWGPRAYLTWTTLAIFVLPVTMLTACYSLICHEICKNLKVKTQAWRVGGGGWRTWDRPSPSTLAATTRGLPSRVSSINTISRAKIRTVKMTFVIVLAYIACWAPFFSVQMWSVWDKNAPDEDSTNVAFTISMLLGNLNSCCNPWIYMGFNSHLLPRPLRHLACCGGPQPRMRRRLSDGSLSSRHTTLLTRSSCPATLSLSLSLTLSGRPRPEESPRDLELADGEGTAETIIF
As to the kind of experiment: Vasopressin V1b receptor binding test. Conditions: membranes of CHO-K1 cells with human V1b receptor, displacement of 1.5 nM 3H-AVP; for compounds with more than one stereogenic center the diastereomer with greater affinity. The method in brief:
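Radioligand displacement on membranes carrying human V1b receptor in 50 mM tris, 10 mM MgCl2, 0.1% BSA, pH 7.4, 2% DMSO final; 60 min at room temperature, nonspecific binding with 1 μM AVP. Free ligand removed by filtration, bound counted by liquid scintillation, Ki from nonlinear regression of triplicates.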

For the compound `COc1ccc(S(=O)(=O)N2C(=O)C(c3cc(CN(C)C)ccc3F)(N3CCC[C@H]3c3ncco3)c3cc(Cl)ccc32)cc1` (stereo partly drawn) [Example 174, 5-Chloro-3-(5-dimethylaminomethyl-2-fluorophenyl)-1-(4-methoxybenzenesulfonyl)-3-((S)-2-oxazol-2-yl-pyrrolidin-1-yl)-1,3-dihydroindol-2-one], the pKi is 7.00 to 8.00.
With `CCN1CCN(Cc2ccc(C3(N4CCC[C@H]4c4ncco4)C(=O)N(S(=O)(=O)c4ccc(OC)cc4)c4cc(F)c(Cl)cc43)c(OC)c2)CC1` (stereo partly drawn) [Example 193, 5-Chloro-3-[4-(4-ethylpiperazin-1-ylmethyl)-2-methoxyphenyl]-6-fluoro-1-(4-methoxybenzenesulfonyl)-3-((S)-2-oxazol-2-yl-pyrrolidin-1-yl)-1,3-dihydroindol-2-one] the figure was above 8.00; with `CNCc1ccc(OC)c(C2(N3CCC[C@H]3c3ncco3)C(=O)N(S(=O)(=O)c3ccc(OC)cc3)c3cc(Cl)c(Cl)cc32)c1` (stereo partly drawn) [Example 63, 5,6-Dichloro-1-(4-methoxybenzenesulfonyl)-3-(2-methoxy-5-methylaminomethylphenyl)-3-((S)-2-oxazol-2-yl-pyrrolidin-1-yl)-1,3-dihydroindol-2-one], 7.00 to 8.00; with `COc1ccc(S(=O)(=O)N2C(=O)C(c3cc(CN(C)C)ccc3OC)(N3CCC[C@H]3c3ncco3)c3ccc(Cl)cc32)cc1` (stereo partly drawn) [Example 28, 6-Chloro-3-(5-dimethylaminomethyl-2-methoxyphenyl)-1-(4-methoxybenzenesulfonyl)-3-((S)-2-oxazol-2-yl-pyrrolidin-1-yl)-1,3-dihydroindol-2-one], 6.00 to 7.00.
The same measure for `COc1ccc(S(=O)(=O)N2C(=O)C(c3cc(CN4CCCCC4)ccc3OC)(N3CCC[C@H]3c3ncco3)c3cc(Cl)ccc32)cc1` (stereo partly drawn) [Example 14, 5-Chloro-1-(4-methoxybenzenesulfonyl)-3-(2-methoxy-5-piperidin-1-ylmethylphenyl)-3-((S)-2-oxazol-2-yl-pyrrolidin-1-yl)-1,3-dihydroindol-2-one]: above 8.00; for `CCNCc1ccc(OC)c(C2(N3CCC[C@@]3(C)c3ncco3)C(=O)N(S(=O)(=O)c3ccc(OC)cc3)c3ccc(Cl)cc32)c1` (stereo partly drawn) [Example 231, 5-Chloro-3-(5-ethylaminomethyl-2-methoxyphenyl)-1-(4-methoxybenzenesulfonyl)-3-((S)-2-methyl-2-oxazol-2-yl-pyrrolidin-1-yl)-1,3-dihydroindol-2-one]: above 8.00; for `COc1ccc(S(=O)(=O)N2C(=O)C(c3cc(CN(C)C(C)C)ccc3OC)(N3CCC[C@H]3c3ncco3)c3cc(Cl)ccc32)cc1` (stereo partly drawn) [Example 9, 5-Chloro-3-{5-[(isopropylmethylamino)methyl]-2-methoxyphenyl}-1-(4-methoxybenzenesulfonyl)-3-((S)-2-oxazol-2-yl-pyrrolidin-1-yl)-1,3-dihydroindol-2-one]: above 8.00.
With `CCN1CCN(Cc2ccc(C3(N4C[C@H](O)C[C@H]4c4ncco4)C(=O)N(S(=O)(=O)c4ccc(OC)cc4)c4ccc(C#N)cc43)c(OC)c2)CC1` (stereo partly drawn) [Example 179, 5-Cyano-3-[4-(4-ethylpiperazin-1-ylmethyl)-2-methoxyphenyl]-3-((2S,4R)-4-hydroxy-2-oxazol-2-yl-pyrrolidin-1-yl)-1-(4-methoxybenzenesulfonyl)-1,3-dihydroindol-2-one], the negative logarithm of the Ki (pKi) is above 8.00.
With `COc1ccc(S(=O)(=O)N2C(=O)C(c3cc(CN4CCOCC4)ccc3OC)(N3CCC[C@H]3c3ncco3)c3ccc(Cl)cc32)cc1` (stereo partly drawn) [Example 37, 6-Chloro-1-(4-methoxybenzenesulfonyl)-3-(2-methoxy-5-morpholin-4-ylmethylphenyl)-3-((S)-2-oxazol-2-yl-pyrrolidin-1-yl)-1,3-dihydroindol-2-one] the figure was 6.00 to 7.00.
With `COc1ccc(S(=O)(=O)N2C(=O)C(c3cc(CN4CCN(C)CC4)ccc3OC)(N3CCC[C@H]3c3ncco3)c3cc(Cl)ccc32)c(OC)c1` (stereo partly drawn) [Example 86, 5-Chloro-1-(2,4-dimethoxybenzenesulfonyl)-3-[2-methoxy-5-(4-methylpiperazin-1-ylmethyl)phenyl]-3-((S)-2-oxazol-2-yl-pyrrolidin-1-yl)-1,3-dihydroindol-2-one] the figure was 7.00 to 8.00; with `COc1ccc(S(=O)(=O)N2C(=O)C(c3cc(CN(C)C)ccc3OC)(N3CCC[C@H]3c3ncco3)c3cc(Cl)c(Cl)cc32)cc1` (stereo partly drawn) [Example 64, 5,6-Dichloro-3-(5-dimethylaminomethyl-2-methoxyphenyl)-1-(4-methoxybenzenesulfonyl)-3-((S)-2-oxazol-2-yl-pyrrolidin-1-yl)-1,3-dihydroindol-2-one], 7.00 to 8.00; with `COc1ccc(S(=O)(=O)N2C(=O)C(c3ccc(CNCCO)cc3OC)(N3CCC[C@H]3c3ncco3)c3cc(Cl)ccc32)cc1` (stereo partly drawn) [Example 137, 5-Chloro-3-{4-[(2-hydroxyethylamino)methyl]-2-methoxyphenyl}-1-(4-methoxybenzenesulfonyl)-3-((S)-2-oxazol-2-yl-pyrrolidin-1-yl)-1,3-dihydroindol-2-one], 7.00 to 8.00.
On to `COc1ccc(S(=O)(=O)N2C(=O)C(c3ccc(CN4CCN(CCO)CC4)cc3OC)(N3CCC[C@H]3c3ncco3)c3cc(C#N)ccc32)cc1` (stereo partly drawn) [Example 147, 5-Cyano-3-{4-[4-(2-hydroxyethyl)piperazin-1-ylmethyl]-2-methoxyphenyl}-1-(4-methoxybenzenesulfonyl)-3-((S)-2-oxazol-2-yl-pyrrolidin-1-yl)-1,3-dihydroindol-2-one], for which the pKi is above 8.00.
The same measure for `COc1cc(CN2CCCC2)ccc1C1(N2CCC[C@H]2c2ncco2)C(=O)N(S(=O)(=O)c2ccc(C#N)cc2)c2ccc(Cl)cc21` (stereo partly drawn) [Example 157, 5-Chloro-3-(2-methoxy-4-pyrrolidin-1-ylmethylphenyl)-3-((S)-2-oxazol-2-yl-pyrrolidin-1-yl)-1-(4-cyanobenzenesulfonyl)-1,3-dihydroindol-2-one]: 7.00 to 8.00; for `CCCNCc1ccc(C2(N3CCC[C@H]3c3ncco3)C(=O)N(S(=O)(=O)c3ccc(OC)cc3)c3ccc(C#N)cc32)c(OC)c1` (stereo partly drawn) [Example 99, 5-Cyano-1-(4-methoxybenzenesulfonyl)-3-(2-methoxy-4-(propylaminomethyl)phenyl)-3-((S)-2-oxazol-2-yl-pyrrolidin-1-yl)-1,3-dihydroindol-2-one]: 7.00 to 8.00.
The same measure for `COc1ccc(S(=O)(=O)N2C(=O)C(c3cc(CN(C)C)ccc3OC)(N3CCCC3c3ccccn3)c3cc(Cl)ccc32)cc1` (stereo not shown) [Example 122, 5-Chloro-3-(5-dimethylaminomethyl-2-methoxyphenyl)-1-(4-methoxybenzenesulfonyl)-3-(2-pyridin-2-yl-pyrrolidin-1-yl)-1,3-dihydroindol-2-one]: 6.00 to 7.00.

As usually defined, the pKi is the Ki on a negative log10 scale, so that one unit is a factor of ten. Higher therefore signals a low Ki.
